Assay results published in ChEMBL document CHEMBL5727121, “Substituted [1,2,4]triazolo[4,3-a]pyrazines as BRD4 inhibitors” (2019).

Target: Bromodomain-containing protein 4 (Homo sapiens, UniProt O60885)
Assay: A mix consisting of 15 nM GST-BRD4-BD1 protein (aa 44-168) or 150 nM GST-BRD4-BD2 (aa 333-460) and 15 nM biotinylated Acetyl-Histone H4 (Lys5, 8, 12, 16) peptide is prepared in assay buffer (50 mM HEPES pH=7.4; 25 mM NaCl; 0.05% Tween 20; 0.1% bovine serum albumin (BSA); 10 mM dithiothreitol (DTT)). 6 μl of the mix is added to the compound dilutions. Subsequently, 6 μl of premixed AlphaLISA Glutathione Acceptor Beads and AlphaScreen Streptavidin Donor Beads from PerkinElmer (in assay buffer at a concentration of 10 μg/ml each) are added and the samples are incubated for 30 min at RT in the dark (shaking 300 rpm). Afterwards, the signal is measured in a PerkinElmer Envision HTS Multilabel Reader using the AlphaScreen protocol from PerkinElmer.Each plate contains negative controls where biotinylated Acetyl-Histone H4 peptide and GST-BRD4-BD1 or GST-BRD4-BD2 are left out and replaced by assay buffer. Negative control values are entered as low basis value when using the software GraphPad Prism for calculations. Furthermore, a positive control (probe molecule JQ1+ with protein/peptide mix) is pipetted. Determination of IC50 values are carried out using GraphPad Prism 3.03 software (or updates thereof).

- IC50: 8 nM
Structure (SMILES): CNc1nc(-c2nn(C)c(C)c2Oc2ccccc2)cn2c(C)nnc12
